Test system: MV-4-11 cells
Experiment: Gene expression microarray analysis (Affymetrix PrimeView) and GSEA
Type: cell-based, human
Design: RFU PODN (11730768_x_at) / Fold change /veh PODN (11730768_x_at) / RFU LINC00158 (11744669_a_at) / Fold change /veh LINC00158 (11744669_a_at) / RFU DUSP10 (11751237_a_at) / Fold change /veh DUSP10 (11751237_a_at) / RFU ID3 (11757404_x_at) / Fold change /veh ID3 (11757404_x_at) / RFU PLEKHG5 (11737974_s_at) / Fold change /veh PLEKHG5 (11737974_s_at) / RFU LRRC4B (11730491_at) / Fold change /veh LRRC4B (11730491_at) / RFU GIMAP4 (11747438_a_at) / Fold change /veh GIMAP4 (11747438_a_at) / RFU KRT8 (11758183_x_at) / Fold change /veh KRT8 (11758183_x_at) / RFU CNN1 (11734310_a_at) / Fold change /veh CNN1 (11734310_a_at) / RFU VPS37D (11726825_at) / Fold change /veh VPS37D (11726825_at) / RFU C10orf10 (11716522_x_at) / Fold change /veh C10orf10 (11716522_x_at) / RFU KIR2DL2 /// KIR2DL4 /// KIR2DL5A /// KIR2DL5B /// KIR2DS1 /// KIR2DS2 /// KIR2DS3 /// KIR2DS4 /// KIR3DL3 /// KIR3DL3 /// KIR3DS1 (11738374_at) / Fold change /veh KIR2DL2 /// KIR2DL4 /// KIR2DL5A /// KIR2DL5B /// KIR2DS1 /// KIR2DS2 /// KIR2DS3 /// KIR2DS4 /// KIR3DL3 /// KIR3DL3 /// KIR3DS1 (11738374_at) / RFU C1QL1 (11718748_at) / Fold change /veh C1QL1 (11718748_at) / RFU TMPRSS4 (11747572_a_at) / Fold change /veh TMPRSS4 (11747572_a_at) / RFU HAMP (11756126_x_at) / Fold change /veh HAMP (11756126_x_at) / RFU RNFT2 (11725882_a_at) / Fold change /veh RNFT2 (11725882_a_at) / RFU NR4A2 (11747474_a_at) / Fold change /veh NR4A2 (11747474_a_at) / RFU ABCC12 (11746883_a_at) / Fold change /veh ABCC12 (11746883_a_at) / RFU TMEM136 (11760407_x_at) / Fold change /veh TMEM136 (11760407_x_at) / RFU CLDN22 /// WWC2 (11732394_at) / Fold change /veh CLDN22 /// WWC2 (11732394_at) / RFU HLA-DPB1 (11760878_x_at) / Fold change /veh HLA-DPB1 (11760878_x_at) / RFU SPINT1 (11716480_a_at) / Fold change /veh SPINT1 (11716480_a_at) / RFU GAP43 (11754022_s_at) / Fold change /veh GAP43 (11754022_s_at) / RFU A4GNT (11735810_at) / Fold change /veh A4GNT (11735810_at) / RFU PRB3 (11715151_x_at) / Fold change /veh PRB3 (11715151_x_at) / RFU TUBB4B (11761932_at) / Fold change /veh TUBB4B (11761932_at) / RFU CAPN14 (11732068_a_at) / Fold change /veh CAPN14 (11732068_a_at) / RFU TMCC2 (11721928_a_at) / Fold change /veh TMCC2 (11721928_a_at) / RFU IRGQ (11745062_a_at) / Fold change /veh IRGQ (11745062_a_at) / RFU FAM174B (11720279_a_at) / Fold change /veh FAM174B (11720279_a_at) / RFU TMPRSS4 (11748680_a_at) / Fold change /veh TMPRSS4 (11748680_a_at) / RFU FAM212B (11763350_a_at) / Fold change /veh FAM212B (11763350_a_at) / RFU PLEKHG5 (11743358_a_at) / Fold change /veh PLEKHG5 (11743358_a_at) / RFU ZSCAN30 (11745921_a_at) / Fold change /veh ZSCAN30 (11745921_a_at) / RFU CMKLR1 (11741424_a_at) / Fold change /veh CMKLR1 (11741424_a_at) / RFU LOC101060620 /// MAPK8IP1 (11723275_at) / Fold change /veh LOC101060620 /// MAPK8IP1 (11723275_at) / RFU SPTSSB (11747773_x_at) / Fold change /veh SPTSSB (11747773_x_at) / RFU PRSS12 (11739890_at) / Fold change /veh PRSS12 (11739890_at) / RFU BIN1 (11741810_x_at) / Fold change /veh BIN1 (11741810_x_at) / RFU WNT11 (11732464_a_at) / Fold change /veh WNT11 (11732464_a_at) / RFU C10orf10 (11716521_a_at) / Fold change /veh C10orf10 (11716521_a_at) / RFU C5orf56 (11738089_at) / Fold change /veh C5orf56 (11738089_at) / RFU CYB561 (11721691_x_at) / Fold change /veh CYB561 (11721691_x_at) / RFU ANKRD19P (11752326_a_at) / Fold change /veh ANKRD19P (11752326_a_at) / RFU OR2T12 /// OR2T33 /// OR2T8 (11738714_s_at) / Fold change /veh OR2T12 /// OR2T33 /// OR2T8 (11738714_s_at) / RFU VCAN (11748164_a_at) / Fold change /veh VCAN (11748164_a_at) / RFU JSRP1 (11732532_at) / Fold change /veh JSRP1 (11732532_at) / RFU KRTAP10-11 (11738290_x_at) / Fold change /veh KRTAP10-11 (11738290_x_at) / RFU MYO3A (11730013_a_at) / Fold change /veh MYO3A (11730013_a_at) / RFU EBF3 (11725865_a_at) / Fold change /veh EBF3 (11725865_a_at) / RFU CAMK2N1 (11719241_x_at) / Fold change /veh CAMK2N1 (11719241_x_at) / RFU C5orf56 (11738088_a_at) / Fold change /veh C5orf56 (11738088_a_at) / RFU OLFML3 (11715873_a_at) / Fold change /veh OLFML3 (11715873_a_at) / RFU LOC100653217 /// NTM (11731650_a_at) / Fold change /veh LOC100653217 /// NTM (11731650_a_at) / RFU MAPK11 (11762145_a_at) / Fold change /veh MAPK11 (11762145_a_at) / RFU FIZ1 (11724087_x_at) / Fold change /veh FIZ1 (11724087_x_at) / RFU OASL (11726364_x_at) / Fold change /veh OASL (11726364_x_at) / RFU SOX15 (11748057_x_at) / Fold change /veh SOX15 (11748057_x_at) / RFU CD79A (11719716_a_at) / Fold change /veh CD79A (11719716_a_at) / RFU HIST1H1D (11736915_at) / Fold change /veh HIST1H1D (11736915_at) / RFU CASKIN2 (11723855_a_at) / Fold change /veh CASKIN2 (11723855_a_at) / RFU LOC730098 (11760151_x_at) / Fold change /veh LOC730098 (11760151_x_at) / RFU OR4N2 (11742367_at) / Fold change /veh OR4N2 (11742367_at) / RFU PRRT2 (11749266_a_at) / Fold change /veh PRRT2 (11749266_a_at) / RFU SNX32 (11753110_a_at) / Fold change /veh SNX32 (11753110_a_at) / RFU CDHR5 (11726645_a_at) / Fold change /veh CDHR5 (11726645_a_at) / RFU RCAN1 (11760418_a_at) / Fold change /veh RCAN1 (11760418_a_at) / RFU FAM167A (11723789_a_at) / Fold change /veh FAM167A (11723789_a_at) / RFU FAM26E (11764081_at) / Fold change /veh FAM26E (11764081_at) / RFU ISYNA1 (11749810_s_at) / Fold change /veh ISYNA1 (11749810_s_at) / RFU ACY1 (11761880_at) / Fold change /veh ACY1 (11761880_at) / RFU 11764098_at / Fold change /veh 11764098_at / RFU SAMD14 (11745864_x_at) / Fold change /veh SAMD14 (11745864_x_at) / RFU NPB (11741838_a_at) / Fold change /veh NPB (11741838_a_at) / RFU TMPRSS6 (11731388_a_at) / Fold change /veh TMPRSS6 (11731388_a_at) / RFU KRTAP10-2 (11738614_at) / Fold change /veh KRTAP10-2 (11738614_at) / RFU ARHGAP8 /// PRR5-ARHGAP8 (11727945_x_at) / Fold change /veh ARHGAP8 /// PRR5-ARHGAP8 (11727945_x_at) / RFU KRTAP5-7 /// NADSYN1 (11734609_at) / Fold change /veh KRTAP5-7 /// NADSYN1 (11734609_at) / RFU RASL12 (11751679_a_at) / Fold change /veh RASL12 (11751679_a_at) / RFU CDKN2B (11736163_a_at) / Fold change /veh CDKN2B (11736163_a_at) / RFU PRF1 (11729649_at) / Fold change /veh PRF1 (11729649_at) / RFU, ZNF638 /// ZNF638-IT1 / Fold change vs veh, ZNF638 /// ZNF638-IT1 / RFU, PANK3 / Fold change vs veh, PANK3 / RFU, SH3YL1 / Fold change vs veh, SH3YL1 / RFU, ZEB2 / Fold change vs veh, ZEB2 / RFU, NRIP1 / Fold change vs veh, NRIP1 / RFU, PTTG1IP / Fold change vs veh, PTTG1IP / RFU, CAPN2 / Fold change vs veh, CAPN2 / RFU, MED14 / Fold change vs veh, MED14 / RFU, SNORA58 / Fold change vs veh, SNORA58 / RFU, C1orf63 / Fold change vs veh, C1orf63 / RFU, LRRFIP1 / Fold change vs veh, LRRFIP1 / RFU, NDUFAF7 / Fold change vs veh, NDUFAF7 / RFU, SLC12A2 / Fold change vs veh, SLC12A2 / RFU, IBTK / Fold change vs veh, IBTK / RFU, ESF1 / Fold change vs veh, ESF1 / Fold change vs veh, TMEM50B / RFU, TAOK1 / Fold change vs veh, TAOK1 / RFU, ACBD3 / Fold change vs veh, ACBD3 / RFU, TMA16 / Fold change vs veh, TMA16 / RFU, RWDD3 / Fold change vs veh, RWDD3 / RFU, BCAT1 / Fold change vs veh, BCAT1 / RFU, EDEM3 / Fold change vs veh, EDEM3 / RFU, TMEM33 / Fold change vs veh, TMEM33 / RFU, WDR75 / Fold change vs veh, WDR75 / RFU, AHCTF1 / Fold change vs veh, AHCTF1 / RFU, TFRC / Fold change vs veh, TFRC / RFU, ZDHHC17 / Fold change vs veh, ZDHHC17 / RFU, NOM1 / Fold change vs veh, NOM1 / RFU, ARL8B / Fold change vs veh, ARL8B / RFU, ZBTB11 / Fold change vs veh, ZBTB11 / RFU, TAMM41 / Fold change vs veh, TAMM41 / RFU, KIAA1704 /// LOC100996395 / Fold change vs veh, KIAA1704 /// LOC100996395 / RFU, ING1 / Fold change vs veh, ING1 / RFU, TRMT61B / Fold change vs veh, TRMT61B / RFU, FUBP3 / Fold change vs veh, FUBP3 / RFU, TP53 / Fold change vs veh, TP53 / RFU, TNKS2 / Fold change vs veh, TNKS2 / RFU, ZFP14 / Fold change vs veh, ZFP14 / RFU, ACTR2 / Fold change vs veh, ACTR2 / RFU, PPP3R1 / Fold change vs veh, PPP3R1 / RFU, PIK3R1 / Fold change vs veh, PIK3R1 / RFU, HNRNPA1 / Fold change vs veh, HNRNPA1 / RFU, RNF170 / Fold change vs veh, RNF170 / RFU, ZNF28 / Fold change vs veh, ZNF28 / RFU, RNGTT / Fold change vs veh, RNGTT / RFU, OGT / Fold change vs veh, OGT / RFU, BRD1 / Fold change vs veh, BRD1 / RFU, MARS / Fold change vs veh, MARS / RFU, ZNF655 / Fold change vs veh, ZNF655 / RFU, FAHD1 / Fold change vs veh, FAHD1 / RFU, BDP1 / Fold change vs veh, BDP1 / RFU, LRRCC1 / Fold change vs veh, LRRCC1 / RFU, ARID1A / Fold change vs veh, ARID1A / RFU, ZNF146 / Fold change vs veh, ZNF146 / RFU, ZNF330 / Fold change vs veh, ZNF330 / RFU, GPN3 / Fold change vs veh, GPN3 / RFU, C9orf123 / Fold change vs veh, C9orf123 / RFU, N4BP2L2 / Fold change vs veh, N4BP2L2 / RFU, ARFIP1 / Fold change vs veh, ARFIP1 / RFU, FAM179B / Fold change vs veh, FAM179B / RFU, BCL10 / Fold change vs veh, BCL10 / RFU, UHRF1BP1L / Fold change vs veh, UHRF1BP1L / RFU, BET1 / Fold change vs veh, BET1 / RFU, CNOT2 / Fold change vs veh, CNOT2 / RFU, ZNF268 / Fold change vs veh, ZNF268 / Fold change vs veh, ZNF507 / RFU, DGCR2 / Fold change vs veh, DGCR2 / RFU, WDSUB1 / Fold change vs veh, WDSUB1 / Fold change vs veh, HSP90B1 /// MIR3652 / RFU, ADSS / Fold change vs veh, ADSS / RFU, GK / Fold change vs veh, GK / RFU, ZNF148 / Fold change vs veh, ZNF148 / RFU, TAF9 / Fold change vs veh, TAF9 / RFU, SLC1A5 / Fold change vs veh, SLC1A5 / RFU, SLMO2 / Fold change vs veh, SLMO2 / RFU, ABCC4 / Fold change vs veh, ABCC4 / RFU, LOC101060439 /// RAP1B / Fold change vs veh, LOC101060439 /// RAP1B / RFU, RFX7 / Fold change vs veh, RFX7 / RFU, GTPBP10 / Fold change vs veh, GTPBP10 / RFU, CNEP1R1 / Fold change vs veh, CNEP1R1 / RFU, BIVM-ERCC5 /// ERCC5 / Fold change vs veh, BIVM-ERCC5 /// ERCC5 / RFU, ILF3 / Fold change vs veh, ILF3 / RFU 11762660_at / Fold change /veh 11762660_at / RFU VCAN (11757783_s_at) / Fold change /veh VCAN (11757783_s_at) / RFU DDX43 (11728927_at) / Fold change /veh DDX43 (11728927_at) / RFU KRT8 (11758188_x_at) / Fold change /veh KRT8 (11758188_x_at) / RFU NKD1 (11759106_at) / Fold change /veh NKD1 (11759106_at) / RFU SRD5A1 (11742802_a_at) / Fold change /veh SRD5A1 (11742802_a_at) / RFU TPSAB1 /// TPSB2 (11721975_s_at) / Fold change /veh TPSAB1 /// TPSB2 (11721975_s_at) / RFU GSTM3 (11746129_a_at) / Fold change /veh GSTM3 (11746129_a_at) / RFU IL23R (11737362_x_at) / Fold change /veh IL23R (11737362_x_at) / RFU TMEM51 (11727254_a_at) / Fold change /veh TMEM51 (11727254_a_at) / RFU PIWIL2 (11732686_x_at) / Fold change /veh PIWIL2 (11732686_x_at) / RFU ORM1 (11744905_x_at) / Fold change /veh ORM1 (11744905_x_at) / RFU CCDC152 (11743942_at) / Fold change /veh CCDC152 (11743942_at) / RFU ECM1 (11717891_a_at) / Fold change /veh ECM1 (11717891_a_at) / RFU IL23R (11748794_a_at) / Fold change /veh IL23R (11748794_a_at) / RFU TNFAIP8L3 (11732012_x_at) / Fold change /veh TNFAIP8L3 (11732012_x_at) / RFU MBOAT4 (11741988_at) / Fold change /veh MBOAT4 (11741988_at) / RFU 11764193_at / Fold change /veh 11764193_at / RFU TMEM53 (11763286_at) / Fold change /veh TMEM53 (11763286_at) / RFU MAGEB2 (11727129_at) / Fold change /veh MAGEB2 (11727129_at) / RFU TMEM200A (11744735_a_at) / Fold change /veh TMEM200A (11744735_a_at) / RFU CCDC152 (11751479_a_at) / Fold change /veh CCDC152 (11751479_a_at) / RFU FAM211A (11726209_a_at) / Fold change /veh FAM211A (11726209_a_at) / RFU RGS16 (11746705_a_at) / Fold change /veh RGS16 (11746705_a_at) / RFU VCAN (11755009_s_at) / Fold change /veh VCAN (11755009_s_at) / RFU RHOB (11743442_s_at) / Fold change /veh RHOB (11743442_s_at) / RFU RGS16 (11720943_a_at) / Fold change /veh RGS16 (11720943_a_at) / RFU RGS16 (11720944_at) / Fold change /veh RGS16 (11720944_at) / RFU, VPS4B / Fold change vs veh, VPS4B / RFU, CREB1 / Fold change vs veh, CREB1 / RFU, DNAJC13 / Fold change vs veh, DNAJC13 / RFU, GNAQ / Fold change vs veh, GNAQ / RFU, CDK5R1 / Fold change vs veh, CDK5R1 / RFU, ZRANB3 / Fold change vs veh, ZRANB3 / RFU, CUL4A / Fold change vs veh, CUL4A / RFU, CCNY / Fold change vs veh, CCNY / RFU, UFL1 / Fold change vs veh, UFL1 / RFU, COG3 / Fold change vs veh, COG3 / RFU, DIAPH2 / Fold change vs veh, DIAPH2 / RFU, SKA2 / Fold change vs veh, SKA2 / RFU, AFF3 / Fold change vs veh, AFF3 / RFU, LMF1 / Fold change vs veh, LMF1 / RFU, IPO11 / Fold change vs veh, IPO11 / RFU, DFFB / Fold change vs veh, DFFB / RFU, FOXP1 / Fold change vs veh, FOXP1 / RFU, CARD8 / Fold change vs veh, CARD8 / RFU, STRN3 / Fold change vs veh, STRN3 / RFU, ADK / Fold change vs veh, ADK / RFU, RASSF2 / Fold change vs veh, RASSF2 / RFU, WIPF1 / Fold change vs veh, WIPF1 / RFU, LARP1B / Fold change vs veh, LARP1B / RFU, RASA1 / Fold change vs veh, RASA1 / RFU, RB1 / Fold change vs veh, RB1 / RFU, PPFIA1 / Fold change vs veh, PPFIA1 / RFU, MAT2A / Fold change vs veh, MAT2A / RFU, CCT5 / Fold change vs veh, CCT5 / RFU, WDR92 / Fold change vs veh, WDR92 / RFU, CUX1 / Fold change vs veh, CUX1 / RFU, TTC7A / Fold change vs veh, TTC7A / RFU, TMEM135 / Fold change vs veh, TMEM135 / RFU, DEPTOR / Fold change vs veh, DEPTOR / RFU, CPM / Fold change vs veh, CPM / RFU, DNAJB6 / Fold change vs veh, DNAJB6 / RFU, CACNA2D3 / Fold change vs veh, CACNA2D3 / RFU, DTX4 / Fold change vs veh, DTX4 / RFU, TFCP2 / Fold change vs veh, TFCP2 / RFU, GMCL1 /// GMCL1P1 / Fold change vs veh, GMCL1 /// GMCL1P1 / RFU, AEBP2 / Fold change vs veh, AEBP2 / RFU, SNHG1 /// SNORD22 /// SNORD25 /// SNORD26 /// SNORD27 /// SNORD28 /// SNORD29 /// SNORD31 / Fold change vs veh, SNHG1 /// SNORD22 /// SNORD25 /// SNORD26 /// SNORD27 /// SNORD28 /// SNORD29 /// SNORD31 / Fold change (Aza/veh), C12orf56 (ProbeSet 11735607_a_at) / Fold change (ACY-1035/veh), C12orf56 (ProbeSet 11735607_a_at) / Fold change (Aza/veh), FGFR1OP (ProbeSet 11751329_s_at) / Fold change (ACY-1035/veh), FGFR1OP (ProbeSet 11751329_s_at) / Fold change (Aza/veh), VPS36 (ProbeSet 11739960_a_at) / Fold change (ACY-1035/veh), VPS36 (ProbeSet 11739960_a_at) / RFU SYPL1 (11715823_x_at) / Fold change /veh SYPL1 (11715823_x_at) / RFU IGFBP7 (11715501_s_at) / Fold change /veh IGFBP7 (11715501_s_at) / RFU REEP3 (11722064_at) / Fold change /veh REEP3 (11722064_at) / RFU IGLL1 (11728026_x_at) / Fold change /veh IGLL1 (11728026_x_at): dose or concentration left out as unconfirmed
Settings: ProbeSet 11763166_a_at; LIST B

In the case of Nc1ccc(-c2cccs2)cc1NC(=O)c1ccc2c(c1)cc(C1CC1)n2CCN1CCOCC1 [ACY-1035], the “Fold change vs veh, MARS” value is reported as 1.14.
